Data on six molecules can be found in patent US9034856B2, “17-(1′propenyl)-17-3′-oxidoestra-4-en-3-one derivative, use thereof, and medicament containing said derivative” (Bayer Intellectual Property GmbH, priority 2007, dated 2015).

In experiment [1] the target is T1, mineralocorticoid receptor (Homo sapiens (Human), UniProt P08235). In words: Mineralocorticoid receptor binding test. As to conditions: reference 3H-aldosterone, Hi5 cytosol. The source says:
2. Mineralocorticoid Receptor Binding Test:

The target in experiment [2] is T1, mineralocorticoid receptor. Put plainly: Antimineralocorticoid action by transactivation test (MDCK reporter cells). It counts as cell-based. As to conditions: for pIC50: read-out: Mineralocorticoid receptor Antagonism IC50; for Emax: read-out: Mineralocorticoid receptor Antagonism efficacy. The method, then: 5. Determination of Antimineralocorticoid Action by Means of Transactivation Tests:
The antimineralocorticoid activity of the test substances was determined as for the transactivation tests described above.
The following modifications were undertaken: In this case reporter cell lines were used (MDCK cells) that express the human mineralocorticoid receptor, and transiently contain a reporter construct that contains luciferase under the control of a steroid hormone-responsive promoter.

Experiment [3] has as its target androgen receptor (Homo sapiens (Human), UniProt P10275). Put plainly: Androgenic/antiandrogenic action by transactivation test (PC3 reporter cells). It counts as cell-based. The protocol:
6. Determination of Androgenic/Antiandrogenic Action by Means of Transactivation Tests:
The androgenic/antiandrogenic action of the test substances was determined as for the transactivation tests described above.
The following modifications were made: In this case reporter cell lines were used (PC3 cells) that express the androgen receptor, and a reporter construct that contains luciferase under the control of a steroid hormone-responsive promoter.
For determination of the antiandrogenic efficacy, 0.05 nM R1881 was added to the cells, in order to achieve almost maximum stimulation of the reporter gene.

Experiment [4] has as its target progesterone receptor (Homo sapiens (Human), UniProt P06401). In words: Progesterone receptor binding test. Particulars: for Progesterone receptor (PR) Competition factor: CF 1 = affinity of progesterone, CF > 1 lower affinity; for pIC50: displacement of 3H-progesterone, cytosol from PR-expressing Hi5 insect cells. The protocol:
1. Progesterone Receptor Binding Test:
Using cytosol from progesterone receptor-expressing insect cells (Hi5), competitive binding to the progesterone receptor was determined from the ability to displace ^3H-progesterone as reference substance from the receptor.
Background: Loss of bound radioactivity is the signal in a displacement assay; it reports binding, not function.

The target in experiment [5] is fusion protein from the PR-ligand-binding domain and a Gal4-transactivation domain (Homo sapiens, UniProt P06401). Put plainly: Progestational action by transactivation test (CHO K1 reporter cells). The experiment is classed as cell-based. Particulars: CHO K1 luciferase reporter, 16 hours incubation; for pEC50: read-out: Progesterone receptor Agonism EC50; for Emax: read-out: Progesterone receptor Agonism efficacy. The protocol: 4. Determination of Progestational Action by Means of Transactivation Tests:
The test compounds were added eight hours later, and the cells were incubated with the compounds for 16 hours. The tests were carried out in triplicate. At the end of incubation the medium containing the effector was removed and replaced with lysis buffer. After luciferase assay substrate (Promega, #E1501) had been added, the 96-well plates were then put in a microplate luminometer (Pherastar, BMG Labtech), and the luminescence was measured. The IC50 values were evaluated using software for calculating dose-effect relations.

Where [6] appears, read: MDCK reporter cells, 1 nM aldosterone.
[7] abbreviates: 0.05 nM R1881, read-out: Androgen receptor Antagonism efficacy.
[8] abbreviates: read-out: Androgen receptor Agonism efficacy.

Molecules are shown by their SMILES. pEC50, pIC50: −log10 of the molar value. Where two headings read alike, the source gives them in different places.

androgen receptor, sequence (P10275 whole entry, species assumed): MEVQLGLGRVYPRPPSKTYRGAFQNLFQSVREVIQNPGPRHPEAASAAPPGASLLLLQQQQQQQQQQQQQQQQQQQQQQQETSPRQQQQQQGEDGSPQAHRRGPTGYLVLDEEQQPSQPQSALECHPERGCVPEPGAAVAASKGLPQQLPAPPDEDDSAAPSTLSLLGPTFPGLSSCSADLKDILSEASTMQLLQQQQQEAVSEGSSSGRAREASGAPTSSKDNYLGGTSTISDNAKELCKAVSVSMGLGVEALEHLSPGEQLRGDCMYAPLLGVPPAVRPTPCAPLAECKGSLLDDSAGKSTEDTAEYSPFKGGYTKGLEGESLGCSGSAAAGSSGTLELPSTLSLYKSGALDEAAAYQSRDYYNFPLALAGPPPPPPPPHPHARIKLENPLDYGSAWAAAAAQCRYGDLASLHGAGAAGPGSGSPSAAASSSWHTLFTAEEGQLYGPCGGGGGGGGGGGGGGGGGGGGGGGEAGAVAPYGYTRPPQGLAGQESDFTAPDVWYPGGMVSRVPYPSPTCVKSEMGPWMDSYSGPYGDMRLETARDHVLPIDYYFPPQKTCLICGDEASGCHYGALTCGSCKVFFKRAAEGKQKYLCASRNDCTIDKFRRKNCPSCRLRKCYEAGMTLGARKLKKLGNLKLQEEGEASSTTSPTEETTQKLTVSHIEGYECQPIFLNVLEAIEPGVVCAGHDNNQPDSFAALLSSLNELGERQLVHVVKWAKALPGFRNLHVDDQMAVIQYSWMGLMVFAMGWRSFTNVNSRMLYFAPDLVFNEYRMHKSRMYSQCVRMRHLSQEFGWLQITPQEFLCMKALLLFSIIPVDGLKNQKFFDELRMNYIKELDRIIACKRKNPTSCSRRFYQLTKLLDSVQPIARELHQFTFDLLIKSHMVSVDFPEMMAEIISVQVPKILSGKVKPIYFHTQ
T1 sequence (P08235 whole entry): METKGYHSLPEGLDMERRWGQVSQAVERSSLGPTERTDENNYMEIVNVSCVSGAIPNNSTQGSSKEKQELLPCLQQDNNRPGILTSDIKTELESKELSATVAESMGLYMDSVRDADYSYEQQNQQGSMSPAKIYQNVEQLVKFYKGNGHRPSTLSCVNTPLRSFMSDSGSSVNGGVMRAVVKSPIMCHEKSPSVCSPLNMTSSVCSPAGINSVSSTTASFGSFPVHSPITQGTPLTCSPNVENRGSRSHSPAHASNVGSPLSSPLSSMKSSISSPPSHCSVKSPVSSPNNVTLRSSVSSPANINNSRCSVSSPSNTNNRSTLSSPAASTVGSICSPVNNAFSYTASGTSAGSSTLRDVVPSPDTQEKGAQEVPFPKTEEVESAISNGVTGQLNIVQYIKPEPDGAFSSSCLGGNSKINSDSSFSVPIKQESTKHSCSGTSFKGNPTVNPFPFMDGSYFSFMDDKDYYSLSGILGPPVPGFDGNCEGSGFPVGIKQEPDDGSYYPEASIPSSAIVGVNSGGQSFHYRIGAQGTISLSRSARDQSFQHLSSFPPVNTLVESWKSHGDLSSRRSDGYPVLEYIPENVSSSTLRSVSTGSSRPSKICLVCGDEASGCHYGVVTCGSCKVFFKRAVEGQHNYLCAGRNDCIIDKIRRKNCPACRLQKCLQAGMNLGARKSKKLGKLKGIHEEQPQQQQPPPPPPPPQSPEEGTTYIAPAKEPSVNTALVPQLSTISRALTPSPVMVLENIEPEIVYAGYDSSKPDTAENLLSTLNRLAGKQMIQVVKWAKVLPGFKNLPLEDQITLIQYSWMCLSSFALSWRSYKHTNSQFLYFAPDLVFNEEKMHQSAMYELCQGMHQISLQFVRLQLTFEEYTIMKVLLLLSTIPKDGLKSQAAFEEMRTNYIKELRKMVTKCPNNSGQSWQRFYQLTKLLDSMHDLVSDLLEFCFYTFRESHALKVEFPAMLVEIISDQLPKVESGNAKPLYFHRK
progesterone receptor, sequence (P06401 whole entry, species assumed): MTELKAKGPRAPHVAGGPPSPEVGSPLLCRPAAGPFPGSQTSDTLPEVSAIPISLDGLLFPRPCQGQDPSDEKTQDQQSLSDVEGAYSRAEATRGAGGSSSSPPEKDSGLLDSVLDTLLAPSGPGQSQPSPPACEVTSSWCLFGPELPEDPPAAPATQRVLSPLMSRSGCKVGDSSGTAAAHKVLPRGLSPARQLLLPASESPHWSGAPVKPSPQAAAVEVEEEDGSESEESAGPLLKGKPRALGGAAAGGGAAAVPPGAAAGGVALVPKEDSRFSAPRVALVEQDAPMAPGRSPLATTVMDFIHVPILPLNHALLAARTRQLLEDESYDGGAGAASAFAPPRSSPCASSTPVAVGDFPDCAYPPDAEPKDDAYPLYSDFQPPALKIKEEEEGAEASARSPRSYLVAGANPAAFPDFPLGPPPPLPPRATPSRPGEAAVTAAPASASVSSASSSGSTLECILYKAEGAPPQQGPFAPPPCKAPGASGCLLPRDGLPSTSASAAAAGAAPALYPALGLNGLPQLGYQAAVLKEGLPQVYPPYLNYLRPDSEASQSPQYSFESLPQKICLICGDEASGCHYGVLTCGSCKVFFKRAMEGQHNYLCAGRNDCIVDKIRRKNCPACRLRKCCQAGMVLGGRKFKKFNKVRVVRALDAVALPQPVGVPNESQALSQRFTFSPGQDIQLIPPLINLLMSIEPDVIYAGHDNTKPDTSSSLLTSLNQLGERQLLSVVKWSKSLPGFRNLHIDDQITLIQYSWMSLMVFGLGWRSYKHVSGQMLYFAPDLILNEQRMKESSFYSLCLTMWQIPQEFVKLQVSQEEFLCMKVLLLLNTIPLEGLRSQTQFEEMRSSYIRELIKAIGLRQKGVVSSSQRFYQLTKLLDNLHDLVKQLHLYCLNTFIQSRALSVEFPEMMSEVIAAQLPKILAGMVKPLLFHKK
fusion protein from the PR-ligand-binding domain and a Gal4-transactivation domain, sequence (P06401 679-913): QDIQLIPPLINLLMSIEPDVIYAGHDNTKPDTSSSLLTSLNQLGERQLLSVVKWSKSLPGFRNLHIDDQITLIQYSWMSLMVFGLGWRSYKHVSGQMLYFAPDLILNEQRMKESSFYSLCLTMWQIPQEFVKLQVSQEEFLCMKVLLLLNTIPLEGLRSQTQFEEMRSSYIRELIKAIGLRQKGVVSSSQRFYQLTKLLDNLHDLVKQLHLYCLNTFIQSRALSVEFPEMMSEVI

For the molecule `C[C@]12CC[C@H]3[C@@H](C=CC4=CC(=O)CC[C@@H]43)[C@@H]1CC[C@@]21C=CCO1` (stereo in doubt) [Example 2, 17α-(1′-Propenyl)-17β-3′-oxidoestra-4,6-dien-3-one], the “Mineralocorticoid receptor (MR) Competition factor” value in experiment [1] was found to be 8.9. For the same molecule, the figures for the pIC50 in experiment [2] (setting [6]) and in experiment [4] were 7.04 and 7.26, respectively. Further, the Emax in experiment [2] (setting [6]) came to 136%; in experiment [3] (setting [7]), 34.4%; in experiment [3] (setting [8]), 31.9%; in experiment [5], 36.4%. Further, in experiment [4], the “Progesterone receptor (PR) Competition factor” value (“Progesterone receptor” for short) is recorded as 2.29. Moreover, the pEC50 (as a rule, the EC50 on a negative log10 scale, so that one unit is a factor of ten) in experiment [5] is 8.54.

Regarding `C[C@]12CCC(=O)C=C1[C@@H]1C[C@@H]1[C@H]1[C@@H]3[C@@H]4C[C@@H]4[C@@]4(CCC(=O)O4)[C@@]3(C)CC[C@@H]12` [A, 6β,7β-15β,16β-dimethylene-3-oxo-17-pregn-4-ene-21,17β-carbolactone, reference compound], the “Mineralocorticoid receptor (MR) Competition factor” value in experiment [1] came to 0.5. The Emax amounted to 64.1% in experiment [2] (MDCK) and 72.2% in experiment [5]. For the same molecule, in experiment [4], the “Progesterone receptor” value stood at 2.7.

With `C[C@@H]1CC2=CC(=O)CC[C@@H]2[C@H]2CC[C@@]3(C)[C@@H](CC[C@@]34C=CCO4)[C@@H]21` [Example 3, 7α-Methyl-17α-(1′-propenyl)-17β-3′-oxidoestra-4-en-3-one], the “Mineralocorticoid receptor (MR) Competition factor” value in experiment [1] is on record as 3.2. Moreover, the results for the pIC50 in experiment [2] (setting [6]) and in experiment [4] were 7.77 and 7.21, respectively. For the same molecule, the Emax in experiment [2] (setting [6]) was determined as 112%; in experiment [3] (setting [7]), 5%; in experiment [3] (setting [8]) it was 80.2%; in experiment [5], 61.6%. Further, the “Progesterone receptor” value in experiment [4] is 2.41. For the same molecule, in experiment [5], the pEC50 is 8.43.

Take `CC[C@]12CC[C@H]3[C@@H]([C@H](C4CC4)CC4=CC(=O)CC[C@@H]43)[C@@H]1CC[C@@]21C=CCO1` [Example 12, 7α-Cyclopropyl-18-methyl-17α-(1′-propenyl)-17β-3′-oxidoestra-4-en-3-one]: in experiment [1], the “Mineralocorticoid receptor (MR) Competition factor” value turned out to be 2.0. Moreover, in experiment [2] (MDCK reporter cells, 1 nM aldosterone, cell spans IC50 and efficacy), the “Mineralocorticoid receptor Antagonism (result in words)” value was “Partial agonist”. The Emax in experiment [3] (setting [7]) came to 5%. In experiment [3] (setting [8]), the Emax worked out at 70.1%. In experiment [4], the “Progesterone receptor” value worked out at 8.51 and the pIC50 (usually the IC50 on a negative log10 scale, so that one unit is a factor of ten) was 6.68. In experiment [5], the pEC50 is 7.26 and the Emax worked out at 30.9%.

`C[C@]12CC[C@H]3[C@@H](CCC4=CC(=O)CC[C@@H]43)[C@@H]1CC1(CC1)[C@@]21C=CCO1` (stereo in doubt) [Example 6, 16,16-Ethylene-17α-(1′-propenyl)-17β-3′-oxidoestra-4-en-3-one]: the “Mineralocorticoid receptor (MR) Competition factor” value in experiment [1] was determined as 22.9. Further, the pIC50 in experiment [2] (setting [6]) was 6.00; in experiment [4] it was 6.96. Moreover, the Emax came out at 65.1% in experiment [2] (setting [6]), 70.1% in experiment [3] (setting [7]) and 49.7% in experiment [3] (setting [8]). Besides, the “Progesterone receptor” value in experiment [4] is 3.41.

In the case of `C[C@]12CC[C@H]3[C@@H](CCC4=CC(=O)CC[C@@H]43)[C@@H]1CC[C@@]21C=CCO1` (stereo in doubt) [Example 1, 17α-(1′-Propenyl)-17β-3′-oxidoestra-4-en-3-one], in experiment [1], the “Mineralocorticoid receptor (MR) Competition factor” value is given as 2.6. In addition, the pIC50 in experiment [2] (setting [6]) is 7.51; in experiment [4], 8.52. Also, the Emax in experiment [2] (setting [6]) was determined as 83%; in experiment [3] (setting [7]), 29%; in experiment [3] (setting [8]), 62.7%. For the same molecule, in experiment [4], the “Progesterone receptor” value is on record as 0.46.
